This note sets out measurements from PMC6049614 (Chemical Communications (Cambridge, England), 2018).

The term Ki denotes the dissociation constant of the complex between target and ligand, obtained from inhibition or displacement. Low readings indicate a stronger hold on the target, high ones a looser hold on the target. For orientation: half-life means the time needed for the level to fall by half in the phase considered. Read a high half-life as slow decline.

Where a SMILES comes first, the peptide text is derived from it. Bridges are numbered along the chain shown (N, C = ends). [ ]: non-standard residue; d: D form. The star is where a group is joined. X1 = O=C(O)CN1CCN(CC(=O)O)CCN(Cc2ccc(CC(=O)*)cc2)CC1; Mpa = O=C(O)CCS A value given as a limit tells only on which side of the number the result lay.

Series [1] deals with T1, human vasopressin receptor V2 (Homo sapiens, UniProt P30518).
T1 construct: expressed in transfected cells
T1 sequence (P30518 whole entry): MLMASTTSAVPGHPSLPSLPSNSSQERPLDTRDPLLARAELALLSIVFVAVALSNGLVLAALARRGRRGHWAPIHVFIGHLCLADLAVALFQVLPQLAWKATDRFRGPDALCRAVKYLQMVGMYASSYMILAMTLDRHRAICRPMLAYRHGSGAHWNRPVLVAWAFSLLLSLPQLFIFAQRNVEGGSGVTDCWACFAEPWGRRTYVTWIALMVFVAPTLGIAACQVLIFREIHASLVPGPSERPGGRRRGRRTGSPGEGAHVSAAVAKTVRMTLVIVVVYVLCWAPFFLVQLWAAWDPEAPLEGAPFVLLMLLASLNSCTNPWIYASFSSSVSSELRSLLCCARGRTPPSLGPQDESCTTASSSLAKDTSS
The series can be described thus: Scintillation proximity assay, displacement of [3H]AVP from human V2 receptor. It is filed as binding. The source says:
(§1) OT analogues were screened in scintillation proximity assays that displace [^3H]OT or [^3H]AVP from the corresponding receptors. […]
(§2) All RCYs reported are decay corrected to the time of 18F delivery. The protocols for performing
(§3) receptor radioligand binding and potency studies on transfected cells to determine affinity

Series [2] deals with T2, human vasopressin receptor V1b (Homo sapiens, UniProt P47901).
T2 construct: expressed in transfected cells
T2 sequence (P47901 1-424): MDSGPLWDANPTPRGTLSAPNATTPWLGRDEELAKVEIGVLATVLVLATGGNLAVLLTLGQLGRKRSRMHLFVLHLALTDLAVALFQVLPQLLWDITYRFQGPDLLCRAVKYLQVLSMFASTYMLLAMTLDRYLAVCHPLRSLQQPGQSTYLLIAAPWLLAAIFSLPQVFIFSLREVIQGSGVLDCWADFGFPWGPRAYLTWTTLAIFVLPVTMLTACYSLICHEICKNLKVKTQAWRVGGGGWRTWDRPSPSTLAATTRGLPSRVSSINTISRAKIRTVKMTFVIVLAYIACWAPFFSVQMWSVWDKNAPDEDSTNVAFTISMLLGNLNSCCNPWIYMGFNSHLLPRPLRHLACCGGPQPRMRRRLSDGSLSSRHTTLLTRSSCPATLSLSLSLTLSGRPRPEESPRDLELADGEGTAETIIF
The series can be described thus: Scintillation proximity assay, displacement of [3H]AVP from human V1b receptor. It is filed as binding. An excerpt:
OT analogues were screened in scintillation proximity assays that displace [^3H]OT or [^3H]AVP from the corresponding receptors. All peptides screened, including in a reduced state, preferentially bound human OTR with nanomolar affinity (Table 1). In line with previous studies, conjugation of a large group to position 8 afforded analogues with increased selectivity and improved affinity towards OTR[15] (approximately 60-fold for AlF-NODA-dLVT, and 7-fold for dLVT; Table 1 and ESI, ^† Fig. S1). […]. […]
tracer, a probe for nose-to-brain oxytocin uptake in vivo
Rhiannon Beard1; Nisha Singh2,3; Christophe Grundschober4; Antony D. Gee2 and Edward W. […]
a.1Department of Chemistry, Imperial College London, Exhibition Road, London, SW7 2AZ, UK; 2Division of Imaging Sciences, King’s College London, 4th Floor, Lambeth Wing, St Thomas’ Hospital, SE1, 7EH, London, UK; 3Centre for Neuroimaging Sciences, IoPPN, KCL, De Crespigny Park, London, SE5 8AF, UK; and 4 Roche Pharma Research and Early Development, Discovery Neuroscience, Roche Innovation Center Basel, F. Hoffmann-La Roche Ltd, Grenzacherstrasse 124, 4070 Basel, Switzerland […]
All RCYs reported are decay corrected to the time of 18F delivery. The protocols for performing receptor radioligand binding and potency studies on transfected cells to determine affinity constants have been reported elsewhere. 1 […]
In general terms: In a scintillation proximity assay essentially only radioactivity close to the scintillant gives light.

For another series, the target named is T3, human V1a receptors (Homo sapiens, UniProt P37288).
T3 construct: expressed in transfected cells
T3 sequence (P37288 whole entry): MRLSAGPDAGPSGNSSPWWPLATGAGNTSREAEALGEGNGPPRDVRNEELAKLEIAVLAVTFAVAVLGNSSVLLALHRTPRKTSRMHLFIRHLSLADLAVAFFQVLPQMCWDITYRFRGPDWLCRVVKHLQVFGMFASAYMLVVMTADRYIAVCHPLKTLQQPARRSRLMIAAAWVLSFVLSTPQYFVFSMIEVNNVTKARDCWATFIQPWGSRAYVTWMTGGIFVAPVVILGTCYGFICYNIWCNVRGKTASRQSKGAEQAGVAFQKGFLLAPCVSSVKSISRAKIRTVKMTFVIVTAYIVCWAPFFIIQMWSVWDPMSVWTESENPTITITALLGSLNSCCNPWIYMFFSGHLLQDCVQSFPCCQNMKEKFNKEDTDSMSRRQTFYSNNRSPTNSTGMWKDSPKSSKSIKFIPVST
The series can be described thus: Scintillation proximity assay, displacement of [3H]AVP from human V1a receptor. It is filed as binding.
From the text: as §1, §2, §3

Another series deals with T4, human OTR (Homo sapiens, UniProt P30559).
T4 construct: expressed in transfected cells
T4 sequence (P30559 1-389): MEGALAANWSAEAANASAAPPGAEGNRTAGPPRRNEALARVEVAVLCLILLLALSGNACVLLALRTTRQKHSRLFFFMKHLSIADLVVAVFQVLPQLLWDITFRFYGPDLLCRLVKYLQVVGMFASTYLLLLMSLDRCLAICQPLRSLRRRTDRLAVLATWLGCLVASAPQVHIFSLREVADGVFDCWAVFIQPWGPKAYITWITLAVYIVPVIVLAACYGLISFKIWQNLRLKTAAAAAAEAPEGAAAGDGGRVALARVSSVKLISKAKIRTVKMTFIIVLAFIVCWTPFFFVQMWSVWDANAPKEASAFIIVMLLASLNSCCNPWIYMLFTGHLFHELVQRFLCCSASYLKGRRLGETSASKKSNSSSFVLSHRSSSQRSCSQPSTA
The series can be described thus: Scintillation proximity assay, displacement of [3H]OT from human OTR. It is filed as binding.
From the text: as §1, §2, §3

The nature of a further series: in vivo. To be noted: rat. The method, then:
To investigate the plausibility of i.n. administration for OT-like therapies, given the similar structure and hydrophilic profile between AlF-NODA-dLVT and OT, in vivo tissue distribution of [^18F]AlF-NODA-dLVT was determined following i.n. or i.v. administration. […]. Here, it is anticipated that both routes show independent kinetic and metabolic profiles and the extended apparent availability of OT following i.n. administration supports a longer timeframe for this study.[27],[28] Distribution was determined through gamma counting of radioactivity in isolated tissue. A large portion underwent excretion via kidneys (i.v. 4.6 ± 0.4%ID per g; i.n. 1.31 ± 0.7%ID per g) and urine (i.v. 2.5 ± 1.2%ID per g; i.n. 7.7 ± 2.2%ID per g), as expected from the hydrophilic character of the tracer, similar to previous results found with radiolabelled OT given i.v. (Fig. 4A).[29]
Supplementary Figure 5: Pharmacokinetic data acquired from three individual rats showing plasma clearance of AlF-NODA-dLVT over time. Rats received a dose of AlF-NODA-dLVT by tail vein injection (0.08 mg/kg), and blood plasma samples were taken at the specified time point for quantitative analysis by mass spectrometry. […]
Supplementary Figure 6: Transaxial nanoPET scan showing distribution over time of [18F]AlF-NODA-dLVT. Tracer was administered either by i.v. bolus (top) or intranasally (bottom) in rat. […]

`CC[C@H](C)[C@@H]1NC(=O)[C@H](Cc2ccc(O)cc2)NC(=O)CCSSC[C@@H](C(=O)N2CCC[C@H]2C(=O)N[C@@H](CCCCNC(=O)Cc2ccc(CN3CCN(CC(=O)O)CCN(CC(=O)O)CC3)cc2)C(=O)NCC(N)=O)NC(=O)[C@H](CC(N)=O)NC(=O)[C@H](CCC(N)=O)NC1=O` [AlF-NODA-dLVTc] ([Mpa]YIQNCPK(X1)G-NH2; disulfide 1-6): the Ki is > 6000 nM in series [1], > 6000 nM in series [2], 157 ± 26 nM on human V1a receptors and 2.6 ± 1.7 nM on human OTR (human OTR). Also, the “selectivity towards OTR” value on human OTR (OTR over V1a, from Ki values of Table 1) is given as “approximately 60 fold”. This compound also gave a half-life in “in vivo” (Wistar, iv, 0.08 mg/kg) of 14 min. For the same compound, the “increase in half-life compared to OT” value in the series “in vivo” is “approximately 5 fold”.
